Reference: patent US20150343016A1, “CHEMICAL ENTITIES AND THERAPEUTIC USES THEREOF” (The Regents of the University of Colorado, a body corporate, priority 2010, published 2015)

Assays:
[1] = system: wild type Drosophila larvae; assay: Drosophila larval survival to adulthood (eclosion), drug with and without IR, wild type; assay type: in vivo; conditions: for effect on the killing effect of radiation (+IR versus +both): wild type
Experimental: To validate the identification of Bouvardin from the primary screen, the effect of this molecule on Drosophila larvae alone or in combination with radiation were assessed (FIG. 12). The screen was performed using irradiated mutant larvae. Hits from the screen were defined as those that reduced the survival of IRRADIATED larvae compared to the population of drugs being tested (approximately 80 molecules at a time) or compared to DMSO controls in the re-test. A hit could therefore act by enhancing the effect of radiation, or by simply killing larvae as a single agent, or both. To distinguish among these possibilities, hits from the screen were re-tested against larvae with and without irradiation.
In FIG. 12 survival after each treatment is expressed as the fraction of animals that emerged (“eclosed”) as viable adults. The averages have been normalized to the average fraction eclosed in no IR/drug control for the respective genotype. Error bars extend beyond fractional survival of 1.0 simply because of normalization. (A-C) Fraction eclosed for WT and grp and p53 mutants at 16 uM of Bouvardin, with and without IR. The data are averages of 3-8 biological replicates per sample. Dotted line on each graph denotes expected ‘fraction eclosed’ if drug and IR act additively. IR doses were 4000R for WT and grp and 3000R for p53 because of the higher radiation sensitivity of the latter. (D) Fraction eclosed for Minute mutants and yw controls after exposure to 0 (−IR) and 2000R (+IR) of X-rays. N ranged from 86-207 per genotype per treatment, in 3 biological replicates per sample. *=p<0.01; **=<0.001. 100R=1Gy. Error bar=1 standard deviation.
The activity of Bouvardin in Drosophila alone or in combination with ionizing radiation (IR) was assessed. Drug concentrations of 10-20 μM were used to approximate the conditions of the original screen. Third instar larvae were irradiated and cultured on medium containing drug. The survival of larvae was quantified 10 days later by measuring the rate of eclosion into adulthood. […] For example, IR alone reduces the eclosion of p53 mutants to 0.63±0.05 and 10 μM of drug reduces it to 0.82±0.15. The combination of Bouvardin and IR reduces eclosion to 0.49, nearly the exact number expected (0.63±0.05×0.82±0.15=0.51±0.10) if the two treatments produced an additive effect. The expected eclosion for additive effect of drug and radiation are denoted with a white dotted line in each graph.
Wild type flies were of the Sevelin stock. Mutants have been described before. p535A-1-4 results from targeted deletion of the gene, and is maintained and used as homogygotes. grpl (Chk1 mutants) results from a p-element insertion and is a genetic null. Homozygotes of the latter were identified by the lack of GFP marker on the balancer chromosome. Minute mutants were of the genotypes y[1]w[*]; P[w[+mC]=lacW]RpS131/CyO and P[lacW]RpL36G0471 w67c23/FM7a. Because Minute mutants were in yw or w background, y1w1 (Bloomington stock #1495) was used as ‘wild type’ control in these experiments.
Feeding stage 3rd instar larvae were irradiated as previously described (2). Briefly, 120 hr old larvae were rinsed to remove food and passed through sizing sieves to obtain animals of uniform size. Larvae were placed in a Petri dish and irradiated using a TORREX X-ray generator, set at 115 kV and 5 mA (producing 2.4 Rads/sec or 1.44 Gy/min) Irradiated larvae were then cultured on cornmeal-agar media (2) containing drug or DMSO carrier. […]

H157 cells = assay: Clonogenic assay, Bouvardin with IR, H157; assay type: cell-based, human
Experimental: To assess the effect of Bouvardin, another measure of cell survival, namely, clonogenic assays, was employed. […] For example, IC50 for IR at 0 and 10 nM of Bouvardin, extrapolated from the graph in FIG. 17A, are approximately 1.5 Gy and 1.0 Gy (dark and light dotted lines respectively).
In FIG. 17 (A) Clonogenic assays were used to confirm the effects of Bouvardin in combination with radiation in H157 cells. Cells were plated in 6 well plates at 1,000 cells per well. 24 hours later, various doses of (1 nM, 5 nM and 10 nM) of Bouvardin were added with media alone as a control. 24 hours after the addition of Bouvardin, the cells were irradiated at 0, 2, 4 and 6 Gy. Colonies were allowed to form for 2 weeks and then counted. The results are shown as a percentage of control (no drug, no IR). Error bar=±1SEM. (B) The effect of Bouvardin (Bvd) and radiation on H157 xenografts in athymic mice. Bouvardin treatment began when tumors had reached approximately 200 mm3. […]
The survival of cells treated with Bouvardin and IR was measured by performing standard clonogenic assays. […] The colonies were then stained with crystal violet (1% in methanol), rinsed 3× with water, and colonies with greater than 50 cells were counted using a dissection microscope. Fraction survival was calculated as a percentage of the control (no drug, no IR).

## COc1ccc(C[C@H]2C(=O)N[C@H](C)C(=O)N(C)[C@@H]3C(=O)N(C)[C@@H](Cc4ccc(O)c(c4)Oc4ccc(cc4)[C@H]3O)C(=O)N[C@@H](C)C(=O)N[C@H](C)C(=O)N2C)cc1 (stereo in doubt) [Bouvardin, bouvardin]
[1]
  effect on the killing effect of radiation (+IR versus +both): not wild type
[1]; wild type flies, bouvardin up to 100 μM, no IR
  effect of drug alone on survival to adulthood: very little effect
[1]; listed as bouvardin
  effect on the killing effect of radiation (+IR versus +both): did not significantly reduce survival to adulthood
H157 cells
  effect on radiation-induced reduction of clonogenicity: increased the effect of radiation in reducing the clonogenicity
